For four compounds, IC50 results are on record in US9073943B2, “Antiviral compounds with a dibenzooxaheterocycle moiety” (Lupin Limited, priority 2012, dated 2015).

The subject of experiment [1] is Huh7.5/Con1/SG-Neo(I)hRluc2aUb cell line persistently expressing a bicistronic genotype 1b replicon. As to the kind of experiment: HCV replicon assay, genotype 1b (Renilla luciferase readout). The settings on record: Hepatitis C virus, genotype 1b replicon in Huh 7.5 cells, 72 h, read-out: Gt1b IC50. The experiment is classed as cell-based. The source says: (§1) Anti-viral activity of the compounds of the invention was monitored using an HCV replicon assay. The Huh7.5/Con1/SG-Neo(I)hRluc2aUb cell line persistently expressing a bicistronic genotype 1b replicon in Huh 7.5 cells and the Huh7.5/J6/JFH1/EMCVIRES/hRlucNeo cell line expressing a bicistronic genotype 2a replicon in Huh 7.5 cells were obtained from Apath LLC. These cell lines were used to test inhibition of replicon levels by test compound using Renilla luciferase enzyme activity readout as a measure of viral replication efficiency.
(§2) Briefly, 7000-7500 cells were seeded in 96 well black clear bottom plates and allowed to adhere overnight. The next day each compound was added in triplicate to the cells at the desired concentration with a final DMSO concentration of 0.5%. Cells in media alone and cells incubated without drug with 0.5% DMSO served as controls. The plates were incubated for 72 h at 37° C. prior to running the luciferase assay. Enzyme activity was measured using Renilla-Glo Luciferase Assay kit from Promega as per the manufacturer's instructions. The following equation was used to generate the percent inhibition value for each test concentration.
(§3) The IC50 value was determined using GraphPad Prism and the following equation: Y=Bottom+(Top−Bottom)/(1+10^((LogIC50−X)*Hill slope))
(§4) IC50 values/% inhibitions of compounds were determined 2-3 times in the replicon assays.
For orientation: A replicon is a self-replicating genome or part of one, used to study replication in cells.

The subject of experiment [2] is Huh7.5/J6/JFH1/EMCVIRES/hRlucNeo cell line expressing a bicistronic genotype 2a replicon. As to the kind of experiment: HCV replicon assay, genotype 2a (Renilla luciferase readout). Type of experiment: cell-based. Conditions: Hepatitis C virus, genotype 2a replicon in Huh 7.5 cells, 72 h, read-out: Gt2a IC50.
Excerpt: as §1, §2, §3, §4

Broadly, the IC50 is the point on the concentration scale where inhibition reaches its midpoint. As to `COC(=O)N[C@H](C(=O)N1CCC[C@H]1c1ncc(-c2ccc3c(c2)OCCCOc2cc(-c4[nH]c([C@@H]5CCCN5C(=O)[C@@H](NC(=O)OC)C(C)C)nc4Cl)ccc2-3)[nH]1)C(C)C` [Compound 2, methyl ((S)-1-((S)-2-(5-(11-(2-((S)-1-((S)-2-(methoxycarbonyl)amino-3-methylbutanoyl)pyrrolidin-2-yl)-1H-imidazol-5-yl)-7,8-dihydro-6H-dibenzo[f,h][1,5]dioxonin-3-yl)-4-chloro-1H-imidazol-2-yl)pyrrolidin-1-yl)-3-methyl-1-oxobutan-2-yl)carbamate], the values for the concentration for half-maximal inhibition (IC50) in experiment [1] and in experiment [2] were 0.051 nM and 0.053 nM, respectively.

Regarding `COC(=O)N[C@H](C(=O)N1CCC[C@H]1c1nc(Cl)c(-c2ccc3c(c2)OCCCOc2cc(-c4[nH]c([C@@H]5CCCN5C(=O)[C@@H](NC(=O)OC)C(C)C)nc4Cl)ccc2-3)[nH]1)C(C)C` [Compound 3, dimethyl ((2S,2′S)-((2S,2′S)-2,2′-(5,5′-(7,8-dihydro-6H-dibenzo[f,h][1,5]dioxonine-3,11-diyl)bis(4-chloro-1H-imidazole-5,2-diyl))bis(pyrrolidine-2,1-diyl))bis(3-methyl-1-oxobutane-2,1-diyl))dicarbamate], the IC50 worked out at 0.018 nM in experiment [1] and 0.037 nM in experiment [2].

As for `COC(=O)N[C@H](C(=O)N1CCC[C@H]1c1ncc(-c2ccc3c(c2)OCC(C)(C)COc2cc(-c4[nH]c([C@@H]5CCCN5C(=O)[C@@H](NC(=O)OC)C(C)C)nc4Cl)ccc2-3)[nH]1)C(C)C` [Compound 6, methyl ((S)-1-((S)-2-(5-(11-(2-((S)-1-((S)-2-(methoxycarbonyl)amino-3-methylbutanoyl)pyrrolidin-2-yl)-4-chloro-1H-imidazol-5-yl)-7,7-dimethyl-7,8-dihydro-6H-dibenzo[f,h][1,5]dioxonin-3-yl)-1H-imidazol-2-yl)pyrrolidin-1-yl)-3-methyl-1-oxobutan-2-yl)carbamate], the concentration for half-maximal inhibition (IC50) came to 0.021 nM in experiment [1] and 0.671 nM in experiment [2].

In the case of `COC(=O)N[C@H](C(=O)N1CCC[C@H]1c1nc(Cl)c(-c2ccc3c(c2)OCC(C)(C)COc2cc(-c4[nH]c([C@@H]5CCCN5C(=O)[C@@H](NC(=O)OC)C(C)C)nc4Cl)ccc2-3)[nH]1)C(C)C` [Compound 7, dimethyl ((2S,2′S)-((2S,2′S)-2,2′-(5,5′-(7,7-dimethyl-7,8-dihydro-6H-dibenzo[f,h][1,5]dioxonine-3,11-diyl)bis(4-chloro-1H-imidazole-5,2-diyl))bis(pyrrolidine-2,1-diyl))bis(3-methyl-1-oxobutane-2,1-diyl))dicarbamate], the IC50 in experiment [1] worked out at 0.004 nM; in experiment [2], 0.249 nM.
